Values of other authors as cited in patent US11364187B2, “Compositions and methods for preventing and reversing aspects of aging” (CENTERS FOR AGE CONTROL, INC., priority 2017, dated 2022).
Values belong to the molecule of their own block, whether it stands above or below them.

Tests used:
SIRT1 enzyme = target: T1, SIRT1 enzyme (Homo sapiens, UniProt Q96EB6); details: in vitro
T1 sequence (Q96EB6 1-747): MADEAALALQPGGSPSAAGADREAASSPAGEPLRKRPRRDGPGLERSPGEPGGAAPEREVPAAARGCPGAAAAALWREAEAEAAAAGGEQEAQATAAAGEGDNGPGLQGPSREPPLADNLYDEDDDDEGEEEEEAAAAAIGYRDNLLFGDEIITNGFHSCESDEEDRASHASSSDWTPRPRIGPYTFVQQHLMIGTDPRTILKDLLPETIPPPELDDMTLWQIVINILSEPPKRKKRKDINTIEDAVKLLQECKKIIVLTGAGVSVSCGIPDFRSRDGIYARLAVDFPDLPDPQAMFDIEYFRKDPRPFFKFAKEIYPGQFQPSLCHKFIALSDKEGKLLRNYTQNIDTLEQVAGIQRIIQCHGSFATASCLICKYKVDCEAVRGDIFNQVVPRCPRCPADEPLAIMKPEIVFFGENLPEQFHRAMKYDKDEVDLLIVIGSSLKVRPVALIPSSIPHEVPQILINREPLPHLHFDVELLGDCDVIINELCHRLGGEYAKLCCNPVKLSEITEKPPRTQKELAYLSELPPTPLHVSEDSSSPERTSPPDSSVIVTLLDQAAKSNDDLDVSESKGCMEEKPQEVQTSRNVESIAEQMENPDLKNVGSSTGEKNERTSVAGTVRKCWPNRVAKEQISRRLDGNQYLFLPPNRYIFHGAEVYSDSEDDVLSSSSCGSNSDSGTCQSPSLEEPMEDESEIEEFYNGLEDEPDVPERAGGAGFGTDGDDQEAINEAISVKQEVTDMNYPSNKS

[1] = topically applied
[2] = human body
[3] = 60 year old human equivalent mice, one week of injections

SMILES: NC(=O)c1cccnc1 [nicotinamide]
effect on SIRT1 enzyme (SIRT1 enzyme): direct inhibitor of SIRT1 enzyme in vitro
wrinkles and dark spots on skin [1]: reduces the wrinkles and dark spots on skin

absorption [2]: about 80%
absorption relative to resveratrol [2]: about four times more effectively
SMILES: COc1cc(/C=C/c2ccc(O)cc2)cc(OC)c1 [Pterostilbene]

SMILES: NC(=O)c1ccc[n+]([C@@H]2O[C@H](COP(=O)([O-])O)[C@@H](O)[C@H]2O)c1 [NMN, nicotinamide mono nucleotide]
muscle tissue age appearance [3]: muscle tissue resembling 20 years old
